Measurements reported in publication PMC11992225, “Antibacterial compounds against non-growing and intracellular bacteria” (npj Antimicrobials and Resistance, 2025).
Read-outs that look alike come from different tables or passages of the source.

Columns and labels:
non-growing UPEC CFT073 = test: Dilution-regrowth assay (screen, hit validation, dose-response) on stationary-phase UPEC; assay type: cell-based, Escherichia coli; settings: for EC50: E. coli, regrowth delay of non-growing bacteria, 24 h treatment, OD600 6 h after 2500-fold dilution, read-out: EC50
Outline: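 Regrowth (OD600 after 6 h, 37 °C) of diluted non-growing CFT073, following 24 h compound treatment of 24 h stationary cultures, defines activity relative to untreated control. Screen at 20 µM, validation at 20, 10, 5 µM (duplicates), dose–response in three biological replicates fitted by five-parameter logistic.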

[1] = test system: intracellular S. flexneri 5a M90T in TC7 cells; test: microbe, parasite or virus in culture; assay type: cell-based, Shigella flexneri; settings: for IC50: Shigella flexneri, TC7, 14 h
Text: Nonproliferating bacterial pathogens frequently inhabit intracellular environments, but establishing relevant infection models for high-throughput testing is challenging. Therefore, we firstly tested ability of the hit compounds to cross the eukaryotic cytoplasmic membrane barrier and inhibit growth of S. flexneri within the cytoplasm of the TC7 human colon adenocarcinoma cell line[59]. To this end, we developed a new, fluorescence-based method that enables real-time monitoring of growth of intracellular Shigella. We used S. flexneri 5a M90T strain producing the AfaE adhesin that enhances bacterial adhesion to epithelial cells and allows synchronization of invasion. The strain was further modified to constitutively express super-folder GFP (sfGFP), which enables monitoring bacterial growth by fluorescence measurement. The epithelial cells were grown to confluence and infected with bacteria at an MOI (multiplicity of infection) of 50. […] Following bacterial adhesion and invasion, the cells were incubated with varying concentrations of the hit compounds and intracellular bacterial growth was tracked by measuring green fluorescence.
The cells were split using trypsin, seeded in 96-well plates for infection, and grown to confluence, corresponding to approximately 40,000 cells per well.
A single colony of S. flexneri was inoculated into TSB supplemented with 50 μg/ml spectinomycin and incubated overnight at 37°C with agitation. The overnight culture was diluted 1:200 in fresh TSB, and the bacteria were grown at 37 °C until the OD600 reached 0.3–0.4, corresponding to approximately 2 × 10^7 CFU/ml. Bacteria were pelleted by centrifugation, washed twice with sterile PBS, and resuspended in infection solution (serum-free DMEM supplemented with 20 mM HEPES, pH 7.4). Just prior to infection, the medium was withdrawn, and the cells were washed twice with sterile PBS. The bacterial inoculum (MOI 50, 2 × 10^7 CFU/ml) was added to all wells except the no-infection control. The plates were incubated at room temperature for 15 min to allow bacterial adhesion, followed by a 1 h incubation at 37 °C with 5% CO2 to facilitate bacterial invasion.
Twofold serial dilutions of the drugs were prepared in infection solution containing 50 μg/ml gentamicin in a 96-well plate. After the invasion period, the bacterial inoculum was removed, and the serial dilutions of the drugs were added to the wells, except for the no-drug control. […] […] The experiments were performed in triplicates on separate days.
Statistical significance of the drug effects was assessed using a one-way ANOVA followed by Dunnett’s test, comparing each treatment to the drug-free control. Statistical significance of the differences in chemical characteristics between the hit compounds and the Prestwick library was assessed using a Mann–Whitney test. Statistical significance was set at P ≤ 0.05. A five-parameter logistic equation was used for asymmetric sigmoidal curve fitting and for EC50 and IC50 determination. The Venn diagram in Fig. 1F was prepared using BioVenn web application. Characteristics of the chemical and physical properties of Prestwick library compounds were obtained from Supplementary Table S1 from reference. Characteristics of the hit compounds not included in the Prestwick library were retrieved from the PubChem database.

[2] = Escherichia coli, pH 7.4, 1:4 CA-MHB
[3] = TC7 cells infected with GFP-expressing S. flexneri, 14 h treatment

SMILES	EC50 (non-growing UPEC CFT073; [2])	IC50 [1]	Fluorescence intensity (RFU), Mean, 0.5 x MIC [1, 3]	Fluorescence intensity (RFU), Mean, 2 x MIC [1, 3]	Fluorescence intensity (RFU), Mean, 4 x MIC [1, 3]	Fluorescence intensity (RFU), Mean, 8 x MIC [1, 3]	Fluorescence intensity (RFU), Mean, 16 x MIC [1, 3]	Fluorescence intensity (RFU), Mean, 32 x MIC [1, 3]	Fluorescence intensity (RFU), Mean, MIC [1, 3]	Fluorescence intensity (RFU), Mean, 0.25 x MIC [1, 3]	other results
COc1c(N2CCNC(C)C2)c(F)cc2c(=O)c(C(=O)O)cn(C3CC3)c12 (stereo not shown) [Gatifloxacin]	709 nM	34 nM	7621.42 RFU	3709.33 RFU	3006.58 RFU	2924.83 RFU	2191.44 RFU	1768.58 RFU	5214.92 RFU		
CC(=O)[O][Pt]([NH2])([Cl])([Cl])([NH]C1CCCCC1)[O]C(C)=O [Satraplatin]			7328.94 RFU	2689 RFU					4882 RFU	8685.25 RFU	Regrowth, OD600 at 6h or 8h after dilution into drug-free medium (average) (non-growing UPEC CFT073; E. coli in 1:4 CA-MHB (pH 7.4), drug concentration 0.25): 0.615; Regrowth, OD600 at 6h or 8h after dilution into drug-free medium (average) (non-growing UPEC CFT073; E. coli in 1:4 CA-MHB (pH 7.4), drug concentration 0.5): 0.612; Regrowth, OD600 at 6h or 8h after dilution into drug-free medium (average) (non-growing UPEC CFT073; E. coli in 1:4 CA-MHB (pH 7.4), drug concentration 1): 0.620; Regrowth, OD600 at 6h or 8h after dilution into drug-free medium (average) (non-growing UPEC CFT073; E. coli in 1:4 CA-MHB (pH 7.4), drug concentration 2.5): 0.601; Regrowth, OD600 at 6h or 8h after dilution into drug-free medium (average) (non-growing UPEC CFT073; E. coli in 1:4 CA-MHB (pH 7.4), drug concentration 5): 0.592; Regrowth, OD600 at 6h or 8h after dilution into drug-free medium (average) (non-growing UPEC CFT073; E. coli in 1:4 CA-MHB (pH 7.4), drug concentration 10): 0.597; Regrowth, OD600 at 6h or 8h after dilution into drug-free medium (average) (non-growing UPEC CFT073; E. coli in 1:4 CA-MHB (pH 7.4), drug concentration 30): 0.570; Regrowth, OD600 at 6h or 8h after dilution into drug-free medium (average) (non-growing UPEC CFT073; E. coli in LPM (pH 5.5), drug concentration 0.25): 0.566; Regrowth, OD600 at 6h or 8h after dilution into drug-free medium (average) (non-growing UPEC CFT073; E. coli in LPM (pH 5.5), drug concentration 0.5): 0.557; Regrowth, OD600 at 6h or 8h after dilution into drug-free medium (average) (non-growing UPEC CFT073; E. coli in LPM (pH 5.5), drug concentration 1): 0.558; Regrowth, OD600 at 6h or 8h after dilution into drug-free medium (average) (non-growing UPEC CFT073; E. coli in LPM (pH 5.5), drug concentration 2.5): 0.474; Regrowth, OD600 at 6h or 8h after dilution into drug-free medium (average) (non-growing UPEC CFT073; E. coli in LPM (pH 5.5), drug concentration 5): 0.354; Regrowth, OD600 at 6h or 8h after dilution into drug-free medium (average) (non-growing UPEC CFT073; E. coli in LPM (pH 5.5), drug concentration 10): 0.251; Regrowth, OD600 at 6h or 8h after dilution into drug-free medium (average) (non-growing UPEC CFT073; E. coli in LPM (pH 5.5), drug concentration 30): 0.087; EC50 (non-growing UPEC CFT073; LPM pH 5.5): 7620 nM; activity against non-growing UPEC in LPM (pH 5.5) compared to 1:4 CA-MHB (pH 7.4) (non-growing UPEC CFT073; regrowth delay and killing, Figs. 2 and 3): potentiated by the low pH; Fluorescence intensity (RFU), Mean, 0.0625 x MIC ([1]; TC7 cells infected with GFP-expressing S. flexneri, 14 h treatment, 0.0625 x MIC): 9460.97 RFU; Fluorescence intensity (RFU), Mean, 0.125 x MIC ([1]; TC7 cells infected with GFP-expressing S. flexneri, 14 h treatment, 0.125 x MIC): 9284.03 RFU
CC[C@H]1OC(=O)C[C@@H](O)[C@H](C)[C@@H](O[C@@H]2O[C@H](C)C[C@H](N(C)C)[C@H]2O)[C@@H](CC=O)C[C@@H](C)C(=O)/C=C/[C@]2(C)O[C@H]2[C@@H]1C [Rosamicin]	858 nM	23600 nM	8207.86 RFU	3601.92 RFU	1830.75 RFU				6316.33 RFU	9383.2 RFU	
C[C@@H]1CN(c2c(F)c(N)c3c(=O)c(C(=O)O)cn(C4CC4)c3c2F)C[C@H](C)N1 [Sparfloxacin]	6330 nM	12 nM	4270.29 RFU	2726.47 RFU	2375.69 RFU	1916.33 RFU	1615.39 RFU	1554.53 RFU	2934.67 RFU	5576.79 RFU	MIC:IC50 ratio ([1]; S. flexneri MIC in TSB versus intracellular IC50): > 2
